From ChEMBL document CHEMBL1201862, “PubChem BioAssay data set” (2004)
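Step 1: Grow cells in 96-well plates. Step 2: Expose to compound for 48 hours at 5 concentrations. Step 3: Interpolate endpoints linearly; if unreached, use highest concentration. The concentration for 50% growth inhibition is given as GI50.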 Calls of active or inactive are those of the source. Cut-off read from the data, not from the text of the source: active = GI50 up to about 1.1 µM and inactive = higher.

Legend:
Assay in all cases: NCI tumour cell line growth inhibition, 48 h
EKVX = tested on: EKVX
MOLT-4 = tested on: MOLT-4
A549 = tested on: A549
UACC-257 = tested on: UACC-257
UACC-62 = tested on: UACC-62
SF-268 = tested on: SF-268
MDA-MB-435 = tested on: MDA-MB-435
RPMI-8226 = tested on: RPMI-8226
TK-10 = tested on: TK-10
T47D = tested on: T47D
MDA-MB-231 = tested on: MDA-MB-231
SF-539 = tested on: SF-539
ACHN = tested on: ACHN
DU-145 = tested on: DU-145
OVCAR-8 = tested on: OVCAR-8
K562 = tested on: K562
NCI-H23 = tested on: NCI-H23
KM12 = tested on: KM12
SK-MEL-5 = tested on: SK-MEL-5
Malme-3M = tested on: Malme-3M
LOX IMVI = tested on: LOX IMVI
786-0 = tested on: 786-0
NCI-H522 = tested on: NCI-H522
UO-31 = tested on: UO-31
SF-295 = tested on: SF-295
HCT-116 = tested on: HCT-116
SNB-19 = tested on: SNB-19
PC-3 = tested on: PC-3
M14 = tested on: M14
SNB-75 = tested on: SNB-75
COLO 205 = tested on: COLO 205
OVCAR-5 = tested on: OVCAR-5
BT-549 = tested on: BT-549
U-251 = tested on: U-251
SW-620 = tested on: SW-620
MCF7 = tested on: MCF7
RXF 393 = tested on: RXF 393
HT-29 = tested on: HT-29
NCI/ADR-RES = tested on: NCI/ADR-RES
CCRF-CEM = tested on: CCRF-CEM
NCI-H226 = tested on: NCI-H226
SR = tested on: SR
CAKI-1 = tested on: CAKI-1
SK-MEL-28 = tested on: SK-MEL-28
MDA-N = tested on: MDA-N
HL-60 = tested on: HL-60
A498 = tested on: A498
SK-MEL-2 = tested on: SK-MEL-2
Hs-578T = tested on: Hs-578T
HCT-15 = tested on: HCT-15
OVCAR-3 = tested on: OVCAR-3
SN12C = tested on: SN12C
IGROV-1 = tested on: IGROV-1
OVCAR-4 = tested on: OVCAR-4
HOP-92 = tested on: HOP-92
SK-OV-3 = tested on: SK-OV-3
NCI-H460 = tested on: NCI-H460
HOP-62 = tested on: HOP-62
HCC 2998 = tested on: HCC 2998

Which results are given for `CC1(O)CC(=O)c2c(cc3ccc(-c4c5c(c(O)c6c(O)cccc46)C(=O)CC(C)(O)C5)c(O)c3c2O)C1` (stereo unspecified)?
GI50 (EKVX): 562 nM (active); GI50 (MOLT-4): 422 nM (active); GI50 (A549): 365 nM (active); GI50 (UACC-257): 324 nM (active); GI50 (UACC-62): 1460 nM (inactive); GI50 (SF-268): 194 nM (active); GI50 (MDA-MB-435): 279 nM (active); GI50 (RPMI-8226): 50.9 nM (active); GI50 (TK-10): 767 nM (active); GI50 (T47D): 562 nM (active); GI50 (MDA-MB-231): 311 nM (active); GI50 (SF-539): 174 nM (active); GI50 (ACHN): 125 nM (active); GI50 (DU-145): 330 nM (active); GI50 (OVCAR-8): 332 nM (active); GI50 (K562): 298 nM (active); GI50 (NCI-H23): 57.4 nM (active); GI50 (KM12): 27.8 nM (active); GI50 (SK-MEL-5): 187 nM (active); GI50 (Malme-3M): 248 nM (active); GI50 (LOX IMVI): 817 nM (active); GI50 (786-0): 435 nM (active); GI50 (NCI-H522): 213 nM (active); GI50 (UO-31): 212 nM (active); GI50 (SF-295): 179 nM (active); GI50 (HCT-116): 64.7 nM (active); GI50 (SNB-19): 180 nM (active); GI50 (PC-3): 83.4 nM (active); GI50 (M14): 406 nM (active); GI50 (SNB-75): 129 nM (active); GI50 (COLO 205): 44.2 nM (active); GI50 (OVCAR-5): 611 nM (active); GI50 (BT-549): 347 nM (active); GI50 (U-251): 60 nM (active); GI50 (SW-620): 468 nM (active); GI50 (MCF7): 199 nM (active); GI50 (RXF 393): < 10 nM (active); GI50 (HT-29): 409 nM (active); GI50 (NCI/ADR-RES): 441 nM (active); GI50 (CCRF-CEM): 380 nM (active); GI50 (NCI-H226): 448 nM (active); GI50 (SR): 367 nM (active); GI50 (CAKI-1): 401 nM (active); GI50 (SK-MEL-28): 326 nM (active); GI50 (MDA-N): 867 nM (active); GI50 (HL-60): 160 nM (active); GI50 (A498): 465 nM (active); GI50 (SK-MEL-2): 271 nM (active); GI50 (Hs-578T): 265 nM (active); GI50 (HCT-15): 90 nM; GI50 (OVCAR-3): 95.3 nM (active); GI50 (SN12C): 1390 nM (inactive); GI50 (IGROV-1): 348 nM (active); GI50 (OVCAR-4): 270 nM (active); GI50 (HOP-92): 242 nM (active); GI50 (SK-OV-3): 2010 nM (inactive); GI50 (NCI-H460): 160 nM (active); GI50 (HOP-62): 296 nM (active)

With `COc1cc(OCCN(C)C)c2[nH]c(C(=O)N3CC(CCl)c4ccc(N)cc43)cc2c1` (stereo unspecified) as the compound, how does the GI50 (EKVX) read?
Its GI50 is 108 nM (active).

What about the GI50 (MOLT-4) of the same compound?
Its GI50 is < 10 nM (active).

And the GI50 (A549)?
The GI50 was 37.7 nM (active).

And the GI50 (UACC-257)?
Its GI50 is 54.6 nM (active).

What about the GI50 (UACC-62) of the same compound?
The GI50 was 40.4 nM (active).

And the GI50 (SF-268)?
The GI50 was 26.4 nM (active).

And the GI50 (MDA-MB-435)?
The GI50 was 47.5 nM (active).

And the GI50 (RPMI-8226)?
The GI50 was 35.8 nM (active).

And the GI50 (TK-10)?
The GI50 was 97.3 nM (active).

What about the GI50 (T47D) of the same compound?
Its GI50 is 31.2 nM (active).

What about the GI50 (MDA-MB-231) of the same compound?
The GI50 was 91.2 nM (active).

And the GI50 (HCC 2998)?
The GI50 was 26.5 nM (active).

What about the GI50 (SF-539) of the same compound?
The GI50 was 74.8 nM (active).

And the GI50 (ACHN)?
Its GI50 is 17.8 nM (active).

And the GI50 (DU-145)?
The GI50 was 14.2 nM (active).

What about the GI50 (OVCAR-8) of the same compound?
Its GI50 is 43.2 nM (active).

And the GI50 (K562)?
Its GI50 is 23.9 nM (active).

What about the GI50 (NCI-H23) of the same compound?
The GI50 was 26.9 nM (active).

And the GI50 (KM12)?
The GI50 was 32.4 nM (active).

And the GI50 (SK-MEL-5)?
Its GI50 is 34.2 nM (active).

And the GI50 (Malme-3M)?
Its GI50 is 90.4 nM (active).

What about the GI50 (LOX IMVI) of the same compound?
Its GI50 is 21 nM (active).

And the GI50 (786-0)?
The GI50 was 20.2 nM (active).

What about the GI50 (NCI-H522) of the same compound?
Its GI50 is 13.9 nM (active).

What about the GI50 (UO-31) of the same compound?
Its GI50 is 19.5 nM (active).

And the GI50 (SF-295)?
Its GI50 is 36.9 nM (active).

And the GI50 (HCT-116)?
The GI50 was 23.8 nM (active).

What about the GI50 (SNB-19) of the same compound?
The GI50 was 114 nM (active).

And the GI50 (PC-3)?
Its GI50 is 24.1 nM (active).

And the GI50 (M14)?
Its GI50 is 63.2 nM (active).

What about the GI50 (SNB-75) of the same compound?
Its GI50 is 67.6 nM (active).

What about the GI50 (COLO 205) of the same compound?
The GI50 was 39.5 nM (active).

What about the GI50 (OVCAR-5) of the same compound?
The GI50 was 65.6 nM (active).

And the GI50 (BT-549)?
The GI50 was 351 nM (active).

And the GI50 (U-251)?
Its GI50 is 43.2 nM (active).

What about the GI50 (SW-620) of the same compound?
Its GI50 is 44.1 nM (active).

And the GI50 (MCF7)?
The GI50 was 13.9 nM (active).

And the GI50 (RXF 393)?
The GI50 was 20.4 nM (active).

And the GI50 (HT-29)?
The GI50 was < 24.6 nM (active).

And the GI50 (NCI/ADR-RES)?
Its GI50 is 37.6 nM (active).

What about the GI50 (CCRF-CEM) of the same compound?
Its GI50 is 19.9 nM (active).

What about the GI50 (NCI-H226) of the same compound?
The GI50 was 86.5 nM (active).

And the GI50 (SR)?
The GI50 was < 10 nM (active).

And the GI50 (CAKI-1)?
The GI50 was 22 nM (active).

And the GI50 (SK-MEL-28)?
The GI50 was 62.8 nM (active).

And the GI50 (MDA-N)?
Its GI50 is 64.3 nM (active).

And the GI50 (A498)?
The GI50 was 201 nM (active).

What about the GI50 (SK-MEL-2) of the same compound?
The GI50 was 38.1 nM (active).

What about the GI50 (Hs-578T) of the same compound?
The GI50 was 361 nM (active).

And the GI50 (HCT-15)?
Its GI50 is 41.8 nM.

And the GI50 (OVCAR-3)?
Its GI50 is 28.2 nM (active).

And the GI50 (SN12C)?
Its GI50 is 59.7 nM (active).

What about the GI50 (IGROV-1) of the same compound?
Its GI50 is 14.8 nM (active).

And the GI50 (OVCAR-4)?
The GI50 was 29 nM (active).

And the GI50 (HOP-92)?
The GI50 was 59.6 nM (active).

What about the GI50 (SK-OV-3) of the same compound?
The GI50 was 1040 nM (active).

And the GI50 (NCI-H460)?
Its GI50 is 14.7 nM (active).

And the GI50 (HOP-62)?
Its GI50 is 16.4 nM (active).
